From patent publication US20250002435A1, “ARYLATED FENCHONE DERIVATIVES, COMPOSITIONS COMPRISING THEM, PROCESSES FOR THEIR PREPARATION AND USES THEREOF” (priority 2021, published 2025)

Experiments:
[1] = system: medial meniscal tear (MMT) post-traumatic OA; test: rat medial meniscal tear (MMT) model, body weight and dynamic weight bearing; format: in vivo
Procedure: Initially, the required amount of HU308 dissolved in ethanol followed by addition of […] with vigorous mechanical agitation to form viscous micelle solution. Finally, the micelle solution was diluted in ice cold saline for injection or culture assays. Vehicle solution consisted of ethanol, cremophor and saline at 1:1:18 ratio. For intra-articular (IA) dosing 50 μL was injected into the tibiofemoral joint, at two doses; 8 and 24 μg/mL. Vehicle control contained 1:1:18 ethanol/Cremophor/saline, while positive control was of IA administered 60 μg/mL FGF-18 (R&D Systems, catalogue No. 8988-F18-050, lot No. BVE0521071) for IA dosing at 50 μL/knee.
(§1) The rat OA model employed was surgically-induced medial meniscal tear (MMT), wherein rats were anesthetized with Isoflurane (VetOne, catalogue No. 502017), and the right knee area was prepared for surgery. A skin incision was made over the medial aspect of the knee, and the medial collateral ligament was exposed by blunt dissection and then transected. The medial meniscus was cut through the full thickness to simulate a complete tear. Skin and subcutis were closed with 4-0 Coated Vicryl (polyglactin 910) Violet Braided Suture (Ethicon, catalogue No. J399H), and slight hand pressure was applied to the wound for approximately 3 minutes for hemostasis. Subcutaneous (SC) dose of buprenorphine (0.05 mg/kg) administered after the animal awakened post-surgery. Rats were weighed daily on study days −1 through 7 and again on days 14, 21, and 28 (prior to necropsy). […] The animals were euthanized for necropsy 28 days post-surgery, following Isoflurane anesthesia, and bled to exsanguination followed by bilateral pneumothorax.

[2] = system: medial meniscal tear (MMT) post-traumatic OA; test: rat MMT model, histopathology of medial tibial joint 28 days post MMT; format: in vivo; conditions: for osteophyte measurements and scores: vs vehicle
Procedure: as §1
Right knees were collected from all animals and trimmed of muscle and patellae. The trimmed joints were placed in 10% neutral buffered formalin (NBF) for histologic processing and evaluation. Samples were fixed for 3 days in 4% paraformaldehyde and decalcified for 21 days in 10% EDTA, pH=7.5. Then following dehydration in a graded series of ethanol washes, joints were embedded in paraffin and sectioned to 7 μm slices, following trimming off 1 mm until the tibiofemoral compartments are fully observed. Sections were obtained from each knee and stained with toluidine blue (0.04% in 0.2 M acetate buffer, Ph=4.0), based on a modified version of the methods used in Schmitz, et al. (2010), (11). Histopathology was carried out using an ocular micrometer. The following structural histological characterization was carried out:
Regional differences across the tibial plateau were taken into consideration by dividing each section into three zones: (1) outside, (2) middle, and (3) inside. In the surgical OA model, the outside (zone-1) and middle (zone-2) thirds are most severely affected, and milder changes are present on the inside third (zone 3). When zones were scored individually, scores were assigned based on percent area of the zone affected. General cartilage degeneration including chondrocyte death/loss, proteoglycan (PG) loss, and collagen loss or fibrillation. Zones were scored individually (0-5; 5 representing sever damage; SD3), and a sum of all three zones was calculated (termed “Total Joint scores”).
The zone related cartilage depth is calculated from the projected articular surface tot the tidemark. Reduced ratios embody less detected cartilage width vs projected cartilage with area, per zone.
Osteophyte thickness (tidemark to furthest point extending toward synovium) was measured and scored according to a range from 0-5, as in SD4.
Damage to the calcified cartilage layer and subchondral bone was scored using the criteria in SD5. Generally damage was considered as invagination of deep zone cartilage into the subchondral bone layer.
[…] Descriptions of other changes (typically fibrosis, or acute inflammation/neutrophil infiltration extending into the lateral compartment usually associated with IA treatments) were also provided, if present.

## CCCCCCC(C)(C)c1cc(OC)c([C@]2(O)C3(C)CCC(C3)C2(C)C)c(OC)c1 (stereo partly shown) [Compound 1d, 2-(2,6′-dimethoxy-4′-(2″-methyloctan-2″-yl)phenyl)-1,3,3-trimethyl-bicyclo[2.2.1]heptan-2-ol]
[1]; 1D high dose 24 μg/mL IA
  dynamic weight bearing, left to right load bearing: statistically insignificant levels vs sham and vehicle
[1]; 1D high dose 24 μg/mL IA, vs Vehicle and FGF18 groups
  change in rat weight from 4 days to 28 days post MMT: slight but significant increase
[1]; 1D low dose 8 μg/mL IA
  dynamic weight bearing, left to right load bearing: increased left to right lad bearing vs sham
[2]; 1D high dose 24 μg/mL IA
  mean zonal depth ratios: reduced depth ratios
  zone 3 cartilage degeneration score: less degeneration scores which were statistically significant
  osteophyte measurements and scores: didn't display any differences
[2]; 1D high dose 24 μg/mL IA, vs 1D low dose and Vehicle
  total zonal cartilage degeneration scores: significantly reduced degenerative scores
[2]; 1D low dose 8 μg/mL IA
  synovitis scores: higher
  zone 3 cartilage degeneration score: less degeneration scores which were statistically significant
  osteophyte measurements and scores: didn't display any differences
